According to US20120295838A1, “Selective poly-substituted glycine antibiotics and related compositions” (priority 2008, published 2012):
Like-named read-outs stand apart in the source and are kept apart here. Values belong to the molecule of their own block, whether it stands above or below them. Square brackets hold non-standard residues; d marks the D form. Peptide text beside a SMILES is read from it. Nspe = C[C@H](NCC(=O)O)c1ccccc1; Nlys = NCCCCNCC(=O)O

How the values were obtained:
B. subtilis ATCC 6633 = assay type: cell-based
Method: (§1) Whereas the preceding generation of molecules was designed to elucidate structure function relationships of specific molecular parameters (chirality, length, hydrophobicity, etc.), another generation compounds were designed explicitly to explore effects on selectivity. Antimicrobial activity of these compounds was tested against bacterial strains E. coli (ATTC 35218) and B. subtilis (ATTC 6633) in cation-adjusted MHB using the microdilution protocols previously described. The sequences, antimicrobial activities, hemolytic activities, and metabolic inhibitory concentrations against NIH 3T3 mouse fibroblast cells are summarized in Table 3 and the rationale of their design is described below.
(§2) Screening antibacterial assays. MICs were determined in 96-well microtiter plates in accordance with CLSI M7-A6 protocols. Peptoid solutions with 50 μL total volume were prepared using 2:1 serial dilutions. 50 i—tL of bacteria inoculum (1×10^6 CFU/mL) prepared in cation-adjusted Mueller-Hinton broth (CAMHB) was added to test wells. Control wells contained 100 μL MHB (no growth) or 50 μL inoculums with 50 μL MHB with no peptoid. […] Reported values were reproducible over three experiments, each containing two parallel trials.
(§3) Antibacterial Assays for Compositions. MICs were determined according to CLSI M7-A6 protocols in a 96-well microtiter plate. In test wells, 50 μL bacterial inoculum (1×10^6 CFU/ml) in cation-adjusted Mueller-Hinton broth (CAMHB) was added to 50 μL peptoid solution in CAMHB (prepared by 1:2 serial dilutions). Positive controls contained 50 μL inoculum and 50 μL CAMHB without peptoid. […] MIC values reported were reproducible between three independent experimental replicates, each consisting of two parallel trials.

E. coli ATCC 35218 = assay type: cell-based
Method: as §1, §2, §3

MTS assay, NIH 3T3 cells = assay type: cell-based, mouse; details: mouse, NIH 3T3 fibroblast cells
Method: (§4) The potencies of all compounds were determined against representative Gram-negative (E. coli ATCC 35218) and Gram-positive (B. subtilis ATCC 6633) biosafety level 1 (BSL1) organisms. In addition to hemolytic activity, the conventional measure of toxicity to mammalian cells, the effect of each ampetoid on NIH 3T3 mouse fibroblast cells was determined using the MTS tetrazolium salt-based colorimetric assay. While hemolysis measures the degree to which erythrocytes are lysed, the MTS assay indirectly quantifies the extent to which cellular metabolic activity is inhibited.
(§5) MTS assays. NIH/3T3 cells (ATCC Corporation) cultured at 37° C. and 5% CO2 in complete Dulbecco's modified eagle's media (CDMEM) supplemented with 1% sodium pyruvate, 1% penicillin-streptomycin, 1.5 g/L NaHCO3, and 10% fetal bovine serum. Cells were seeded at a density of 5,000 cells per well for NIH/3T3 cells in 96-well plates (100 μl total volume). A peptoid solution plate (100 μL total volume per well) was prepared by serial dilution of aqueous peptoid stock solution in Hank's balanced salt solution (HBSS) media. The day-old cell monolayers were washed with HBSS and media was replaced with 100 μL HBSS. The contents of the peptoid solution plate were transferred onto corresponding wells of the cell monolayer plate, and 40 μL MTS reagent (Promega, Inc.) was added to each well. After incubating for 3 hours at 37° C., absorbance at 490 nm was determined. […] The average of six replicates is reported.

[1] = test system: NIH 3T3 mouse fibroblast cells; test: MTS assay, NIH 3T3 cells; assay type: cell-based
Method: as §4, §5

human erythrocytes = test: Hemolysis assay; assay type: cell-based
Method: (§6) Hemolysis assays. Erythrocytes were isolated from freshly drawn, heparanized human blood and resuspended to 20 vol % in PBS (pH 7.4). In a 96-well microtiter plate, 100 μL erythrocyte suspension was added to 100 uL peptoid solution in PBS (prepared by 1:2 serial dilutions), or 100 μL PBS in the case of negative controls. 100% hemolysis wells contained 100 μL, blood cell suspension with 100 μL 0.2 vol % Triton X-100. The plate was incubated for 1 h at 37° C., then each well was diluted with 1504 PBS. The plate was then centrifuged at 1200 g for 15 min, 100 μL of the supernatant from each well transferred to a fresh microtiter plate, and A350 measured.
Hemolysis assays. Erythrocytes were isolated from freshly drawn, heparanized human blood and resuspended in PBS (pH 7.4) to make a 20% volume suspension. Peptoid solutions were prepared by serial dilution (2:1) in a 96-well microtiter plate. For test wells, 100 μLL of erythrocyte suspension was added to 100 μL of peptoid solution in PBS; PBS without peptoid was used as the negative control and 0.2 vol % Triton X-100 as the positive control that indicates 100% hemolysis. After 1 hour incubation at 37° C., each well was diluted with 150 μL PBS. Plates were then centrifuged at 1,200×g for 15 minutes to pellet the cells. 30 μL of the supernatant from each well were transferred to the corresponding well of a second 96-well plate that contains 70 μL PBS.
as §6, with “assays for Compositions.” for “assays.”, “100” for “100 uL”, “μL” for “μL,”, “150 μL” for “1504”, “1200g” for “1200 g”

[2] = RP-HPLC solvent composition at elution as measure of molecular hydrophobicity; assay type: physicochemical; details: Table 8; gradient 5 to 95% ACN over 45 min, C18 column, 0.2 ml/min; average of three replicates
Excerpt: An initial set of 15 ampetoid analogs was synthesized to determine whether peptoids are affected by structural and sequence modifications in a manner consistent with AMP activities. The designs for ampetoids in this library were derived from two antibacterial and selective amphipathic dodecamers, 1 and 2. Peptoid 1 [H-(Nlys-Nspe-Nspe)4-NH2] is composed of 2/3 Nspe, the peptoid analog of phenylalanine, and 1/3 Mys, the peptoid analog of lysine (see FIG. 1 for the structures of representative peptoid monomers and corresponding N-substituents). Peptoid 2 [H-(Mys-Nssb-Nspe)4-NH2] contains 1/3 isoleucine-like Nssb monomers in place of Nspe. The variant sequences were designed to effect changes in chirality, length, hydrophobicity, charge, and amphipathicity. All of these compounds were tested for antibacterial activity against representative BSL1 Gram-negative (E. coli JM109) and Gram-positive (B. subtilis BR151) bacterial strains. As an initial measure of selectivity, the lytic activity of the peptoids was determined against human erythrocytes. Table 1 summarizes the sequences synthesized, the solvent composition at RP-HPLC elution as a relative measure of molecular hydrophobicity, and antibacterial and hemolytic activities.
Following synthesis, peptoid oligomers can be cleaved from the resin, simultaneously removing the tert-butoxycarbonyl (Boc) protecting group from Mys residues, by treatment with 10 ml 2,2,2-trifluoroacetic acid (TFA)/triisopropylsilane/H2O (95:2.5:2.5 by volume) for 30 min. The cleavage mixture is then diluted with 25 ml 50% aqueous acetonitrile, frozen, and lyophilized. Dilution and lyophilization is repeated twice more in order to remove excess TFA. Subsequent to cleavage, peptoids are each purified to >97% homogeneity by preparative scale reversed-phase HPLC using a Waters Prep LC 4000 system, with Waters 2487 dual-wavelength UV detection, and gradient elution (solvent A, 0.1 vol % trifluoroacetic acid (TFA) in water; solvent B, 0.1 vol % TFA in acetonitrile) through a Vydac (Hysperia, Calif.) 214TP101550 C4 peptide/protein column (10-15 μm, 300 Å, 5×25 cm). Following prep HPLC, peptoid purities and crude yields were determined from analytical scale HPLC, performed with a Waters 2695 Separations Module with a Waters 2487 dual-wavelength UV detector and gradient elution (solvent A, 0.1 vol % TFA in water; solvent B, 0.1 vol % TFA in acetonitrile) through a Vydac C4 214TP53 peptide/protein column (5 μm, 300 Å, 3.2×250 mm). The precise gradient employed for HPLC depended on the identity and hydrophobicity of the oligomer in question. All analytical HPLC was performed at 0.5 ml/min flow and 58° C. Preparative HPLC was performed at 50 ml/min flow and room temperature.
Compound synthesis and purification. Peptoids were synthesized using an ABI 433A peptide synthesizer (Applied Biosystems, Inc.) on Rink amide MBHA resin (Novabiochem, Inc.) using the submonomer approach^3. Briefly, bromoacetic acid, activated by diisopropylcarbodiimide was used to form a bromocetylated intermediate on the terminal amide group. Bromide was then substituted with the desired primary amine through SN2 displacement to build the peptoid chain. The amines used in peptoid synthesis include benzylamine, octadecylamine, (s)-(+)-2-amino-3-methylbutane, (s)-α-methylbenzylamine, (r)-(α-methylbenzylamine (all purchased from Sigma-Aldrich), and N-tert-butoxycarbonyl-1,4 diaminobutane (Mys) that was made using a published procedure^83. Resin-bound peptoids were then exposed to a mixture of trifluoroacetic acid (TFA): triisopropylsilane:water (95:2.5:2.5, v:v:v) for ten minutes to cleave peptoids from the solid phase. Peptoids were purified by reversed-phase HPLC (RP-HPLC) (Waters Corporation) using a C18 column and a linear acetonitrile/water gradient. A final purity greater than 97% as measured by analytical RP-HPLC (Waters Corporation) was achieved, and the identity of each molecule was checked using electrospray ionization mass spectrometry. […]

B. subtilis MIC (B. subtilis ATCC 6633; Table 6, B. subtilis ATCC 6633): 0.78 µM
E. coli MIC (E. coli ATCC 35218; Table 6, E. coli ATCC 35218): 25 µM
Structure (SMILES): CC(C)[C@H](C)N(CC(N)=O)C(=O)CN(C(=O)CN(CCCCN)C(=O)CN(C(=O)CN(C(=O)CN(CCCCN)C(=O)CN(C(=O)CN(C(=O)CN(CCCCN)C(=O)CN(C(=O)CN(C(=O)CNCCCCN)[C@@H](C)C(C)C)[C@@H](C)C(C)C)[C@@H](C)C(C)C)[C@@H](C)C(C)C)[C@@H](C)C(C)C)[C@@H](C)C(C)C)[C@@H](C)C(C)C [1-Nsdpall, H-(Nlys-Nsdp-Nsdp)4-NH2]
Selectivity ratio SR B. subtilis (B. subtilis ATCC 6633; Table 6, ratio of 10% hemolytic dose to B. subtilis MIC): 256
Selectivity ratio SR E. coli (E. coli ATCC 35218; Table 6, ratio of 10% hemolytic dose to E. coli MIC): > 8
CC50 at 3 h (MTS assay, NIH 3T3 cells): 64 µM

Structure (SMILES): C[C@@H](c1ccccc1)N(CC(N)=O)C(=O)CN(C(=O)CN(CCCCN)C(=O)[C@@H]1CCCN1C(=O)CN(C(=O)CN(CCCCN)C(=O)CN(C(=O)CN(C(=O)CN(CCCCN)C(=O)CN(C(=O)CN(C(=O)CNCCCCN)[C@@H](C)c1ccccc1)[C@@H](C)c1ccccc1)[C@@H](C)c1ccccc1)[C@@H](C)c1ccccc1)[C@@H](C)c1ccccc1)[C@@H](C)c1ccccc1 [1-Pro9, H-(Nlys-Nspe-Nspe)2-Nlys-Nspe-L-Pro-Nlys-Nspe-Nspe-NH2] (H-[Nlys][Nspe][Nspe][Nlys][Nspe][Nspe][Nlys][Nspe]P[Nlys][Nspe][Nspe]-NH2)
E. coli MIC (E. coli ATCC 35218; ATCC 35218): 12.5 µM
CC50 at 3 h (MTS assay, NIH 3T3 cells): 24 µM
ID50 [1]: 24 µM

Structure (SMILES): C[C@@H](c1ccccc1)N(CC(N)=O)C(=O)CN(C(=O)CN(CCCCN)C(=O)CN(Cc1ccccc1)C(=O)CN(Cc1ccccc1)C(=O)CN(CCCCN)C(=O)CN(C(=O)CN(C(=O)CN(CCCCN)C(=O)CN(Cc1ccccc1)C(=O)CN(Cc1ccccc1)C(=O)CNCCCCN)[C@@H](C)c1ccccc1)[C@@H](C)c1ccccc1)[C@@H](C)c1ccccc1 [1-Npm2,3,8,9, H-(Nlys-Npm-Npm-Nlys-Nspe-Nspe)2-NH2]
E. coli MIC (E. coli ATCC 35218; ATCC 35218): 6.3 µM
CC50 at 3 h (MTS assay, NIH 3T3 cells): 15 µM
ID50 [1]: 15 µM

Structure (SMILES): CC[C@H](C)[C@H](NC(=O)CN)C(=O)NCC(=O)N[C@@H](C)C(=O)N[C@H](C(=O)N[C@@H](CC(C)C)C(=O)N[C@@H](CCCCN)C(=O)N[C@H](C(=O)N[C@@H](CC(C)C)C(=O)N[C@H](C(=O)N[C@H](C(=O)NCC(=O)N[C@@H](CC(C)C)C(=O)N1CCC[C@H]1C(=O)N[C@@H](C)C(=O)N[C@@H](CC(C)C)C(=O)N[C@H](C(=O)N[C@@H](CO)C(=O)N[C@@H](Cc1c[nH]c2ccccc12)C(=O)N[C@H](C(=O)N[C@@H](CCCCN)C(=O)N[C@@H](CCCNC(=N)N)C(=O)N[C@@H](CCCCN)C(=O)N[C@@H](CCCNC(=N)N)C(=O)N[C@@H](CCC(N)=O)C(=O)N[C@@H](CCC(N)=O)C(N)=O)[C@@H](C)CC)[C@@H](C)CC)[C@@H](C)O)[C@@H](C)O)C(C)C)C(C)C [melittin, reference compound]
HD50 (human erythrocytes; Table 8): 6 µM
MIC for E. coli ATCC 35218 (E. coli ATCC 35218; Table 8, CAMHB): 12.5 µM
SR (E. coli ATCC 35218; Table 8, calculated as HD10/E. coli MIC): 0.16
% ACN at RP-HPLC elution [2]: 65.2 % ACN

MIC for B. subtilis ATCC 6633 (B. subtilis ATCC 6633; ATCC 6633): 0.78 µM
E. coli MIC (E. coli ATCC 35218; ATCC 35218): 50 µM
MIC for E. coli ATCC 35218 (E. coli ATCC 35218; ATCC 35218): 30 µM
Structure (SMILES): C[C@@H](c1ccccc1)N(CC(N)=O)C(=O)CN(CCCCN)C(=O)CN(CCCCN)C(=O)CN(C(=O)CN(C(=O)CN(CCCCN)C(=O)CN(C(=O)CN(CCCCN)C(=O)CN(CCCCN)C(=O)CN(C(=O)CN(C(=O)CNCCCCN)[C@@H](C)c1ccccc1)[C@@H](C)c1ccccc1)[C@@H](C)c1ccccc1)[C@@H](C)c1ccccc1)[C@@H](C)c1ccccc1 [1-Nlys5,11, H-(Nlys-Nspe-Nspe-Nlys-Nlys-Nspe)2-NH2] (H-[Nlys][Nspe][Nspe][Nlys][Nlys][Nspe][Nlys][Nspe][Nspe][Nlys][Nlys][Nspe]-NH2)
HD10 (human erythrocytes): >200/>200 μM
HD50 (human erythrocytes): >200/>200 μM
CC50 at 3 h (MTS assay, NIH 3T3 cells): 85 µM
